Laboratory results published in ChEMBL document CHEMBL5352429, “Designed symmetrical β-hairpin peptides for treating multidrug-resistant salmonella typhimurium infections” (Eur J Med Chem, 2022).
The source made the active and inactive calls. The rule behind the calls is not given here. Peptide text beside a SMILES is read from it.

Tests used:
[1] = tested on: Salmonella typhimurium; experiment: Antibacterial activity against Salmonella typhimurium DT104 infected in ICR mouse model at 2 mg/kg, ip administered for 3 days and measured on day 7; assay type: functional, organism-based; conditions: Salmonella enterica subsp. enterica serovar Typhimurium, time 7.0 day
[2] = tested on: Cell membrane; experiment: Disruption of membrane integrity in Salmonella typhimurium DT104 assessed as increase in fluorescence intensity at 0.5 to 2 times of MIC incubated for 15 mins by PI staining based flow cytometric analysis; assay type: subcellular; conditions: Salmonella enterica subsp. enterica serovar Typhimurium
[3] = tested on: Cell membrane; experiment: Induction of cytoplasmic membrane depolarization in Salmonella typhimurium DT104 assessed as increase in fluorescence intensity at 2 times of MIC incubated for 15 mins by DiSC3-5 dye based fluorescence method; assay type: subcellular; conditions: Salmonella enterica subsp. enterica serovar Typhimurium
[4] = tested on: Salmonella typhimurium; experiment: Antibacterial activity against Salmonella typhimurium DT104 in the presence of KCl by MH broth based assay; assay type: functional, Salmonella enterica subsp. enterica serovar Typhimurium; conditions: Salmonella enterica
[5] = tested on: Salmonella typhimurium; experiment: Antibacterial activity against Salmonella typhimurium DT104 in the presence of MgCl2 by MH broth based assay; assay type: functional, Salmonella enterica subsp. enterica serovar Typhimurium; conditions: Salmonella enterica

Question: For `C[C@@H](O)[C@H](NC(=O)[C@H](CS)NC(=O)[C@H](CCCCN)NC(=O)[C@H](Cc1c[nH]c2ccccc12)NC(=O)[C@H](CCCCN)NC(=O)[C@@H](N)Cc1c[nH]c2ccccc12)C(=O)N[C@@H](CCCCN)C(=O)N[C@@H](CO)C(=O)NCC(=O)N[C@@H](CS)C(=O)N[C@@H](CCCCN)C(=O)N[C@@H](Cc1c[nH]c2ccccc12)C(=O)N[C@@H](CCCCN)C(=O)N[C@@H](Cc1c[nH]c2ccccc12)C(N)=O` (H-WKWKCTKSGCKWKW-NH2), which Activity [1] is on record?
Answer: Its Activity is “Active”.

Question: What about the Activity [2] of the same compound?
Answer: The Activity was “Active”.

Question: And the Activity [3]?
Answer: The Activity was “Active”.

Question: What about the MIC [4] of the same compound?
Answer: Its MIC is 8 µg/mL.

Question: What about the MIC [5] of the same compound?
Answer: Its MIC is 4 µg/mL.
